In patent US20250346585A1 (Alexion Pharmaceuticals, Inc., priority 2022, published 2025):

The compounds below were run against Human complement C1s enzyme (Homo sapiens (Human), UniProt P09871) (assay: Human C1s enzyme assay). Settings: Human C1s enzyme assay of Example 3; read-out: IC50 (Stars).
Type: biochemical
Summary of the method: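 IC50 derived by nonlinear regression of rate versus concentration, with rate taken from A405 kinetics (30 s intervals, 30 min) after adding 100 μM each Z-L-Lys-SBzl and DTNB. C1s from human serum, 1.16 nM, exposed to compound for 5 min at RT beforehand; buffer 50 mM Tris, 1 M NaCl, pH 7.5.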

Chain of Human complement C1s enzyme (P09871 438-688 limits assumed): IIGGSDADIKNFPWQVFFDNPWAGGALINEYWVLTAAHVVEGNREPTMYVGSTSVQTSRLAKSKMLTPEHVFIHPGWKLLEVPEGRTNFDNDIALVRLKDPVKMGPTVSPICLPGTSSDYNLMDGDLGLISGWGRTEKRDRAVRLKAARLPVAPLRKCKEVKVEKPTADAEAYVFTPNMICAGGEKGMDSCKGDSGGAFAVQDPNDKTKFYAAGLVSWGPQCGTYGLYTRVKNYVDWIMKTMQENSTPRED
Chain of Human complement C1s enzyme (P09871 16-437 partner limits assumed): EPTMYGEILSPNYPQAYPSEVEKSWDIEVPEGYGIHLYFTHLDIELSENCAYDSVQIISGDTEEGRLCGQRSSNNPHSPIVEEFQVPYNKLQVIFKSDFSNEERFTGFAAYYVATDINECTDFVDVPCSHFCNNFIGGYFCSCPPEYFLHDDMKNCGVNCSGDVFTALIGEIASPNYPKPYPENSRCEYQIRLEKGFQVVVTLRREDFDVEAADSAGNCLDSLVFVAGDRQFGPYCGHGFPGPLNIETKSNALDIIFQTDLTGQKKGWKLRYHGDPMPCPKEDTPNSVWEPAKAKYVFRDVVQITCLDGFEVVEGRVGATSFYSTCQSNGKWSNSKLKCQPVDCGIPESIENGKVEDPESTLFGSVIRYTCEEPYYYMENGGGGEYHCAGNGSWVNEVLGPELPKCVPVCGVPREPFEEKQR

SMILES	IC50
N=C(N)c1cc(CNC(=O)[C@@H]2CC3(CN2C(=O)CNC(=O)c2ccc(-c4ccc(F)cc4F)cc2)OCCO3)cs1 [Compound 155, (S)-N-((5-carbamimidoylthiophen-3-yl)methyl)-7-((2′,4′-difluoro-[1,1′-biphenyl]-4-carbonyl)glycyl)-1,4-dioxa-7-azaspiro[4.4]nonane-8-carboxamide]	< 100 nM
C[C@@H](NC(=O)[C@@H]1CC2(CN1C(=O)CNC(=O)c1ccc3c(c1)-c1ccccc1C3(F)F)OCCO2)c1cc(-c2cocn2)cs1 [Compound 129, (8S)-7-{2-[(9,9-difluorofluoren-3-yl)formamido]acetyl}-N-[(1R)-1-[4-(1,3-oxazol-4-yl)thiophen-2-yl]ethyl]-1,4-dioxa-7-azaspiro[4.4]nonane-8-carboxamide]	> 1000 nM
C[C@@H](NC(=O)[C@@H]1C[C@@H](OC(F)F)CN1C(=O)CNC(=O)c1ccc(Oc2ccc(F)cc2)cc1)c1ccc(C(=N)N)s1 [Compound 57, (2S,4R)—N—((R)-1-(5-carbamimidoylthiophen-2-yl)ethyl)-4-(difluoromethoxy)-1-((4-(4-fluorophenoxy)benzoyl)glycyl)pyrrolidine-2-carboxamide]	< 100 nM
O=C(NCC(=O)N1CC2(C[C@H]1C(=O)NCc1cc(-c3ncc[nH]3)cs1)OCCO2)c1ccc(Oc2ccc(F)cc2)cc1 [Compound 157, (S)-N-((4-(1H-imidazol-2-yl)thiophen-2-yl)methyl)-7-((4-(4-fluorophenoxy)benzoyl)glycyl)-1,4-dioxa-7-azaspiro[4.4]nonane-8-carboxamide]	> 1000 nM
Cn1ncc2cc(-c3ccc(C(=O)NCC(=O)N4CC5(C[C@H]4C(=O)NCc4cc(C(=N)N)cs4)OCCO5)cc3)ccc21 [Compound 140, (S)—N-((4-carbamimidoylthiophen-2-yl)methyl)-7-((4-(1-methyl-1H-indazol-5-yl)benzoyl)glycyl)-1,4-dioxa-7-azaspiro[4.4]nonane-8-carboxamide]	< 100 nM
N=C(N)c1csc(CNC(=O)[C@@H]2C[C@@H](OC(F)F)CN2C(=O)CNC(=O)c2ccc3c(c2)-c2ccccc2C3(F)F)c1 [Compound 50, (2S,4R)—N-((4-carbamimidoylthiophen-2-yl)methyl)-1-((9,9-difluoro-9H-fluorene-3-carbonyl)glycyl)-4-(difluoromethoxy)pyrrolidine-2-carboxamide]	< 100 nM
C[C@@H](NC(=O)[C@@H]1C[C@](F)(CF)CN1C(=O)CNC(=O)c1ccc2c(c1)-c1ccccc1C2(F)F)c1ccc(C(=N)N)s1 [Compound 33, (2S,4R)—N—((R)-1-(5-carbamimidoylthiophen-2-yl)ethyl)-1-((9,9-difluoro-9H-fluorene-3-carbonyl)glycyl)-4-fluoro-4-(fluoromethyl)pyrrolidine-2-carboxamide]	< 100 nM
COC[C@@]1(F)C[C@@H](C(=O)N[C@H](C)c2cc(C(=N)N)cs2)N(C(=O)CNC(=O)c2ccc(Oc3ccc(F)cc3)cc2)C1 [Compound 17, (2S,4R)—N—((R)-1-(4-carbamimidoylthiophen-2-yl)ethyl)-4-fluoro-1-((4-(4-fluorophenoxy)benzoyl)glycyl)-4-(methoxymethyl)pyrrolidine-2-carboxamide]	< 100 nM
N=C(N)c1csc(CNC(=O)[C@@H]2CC3(CN2C(=O)CNC(=O)c2ccc4c(c2)-c2ccccc2C4(F)F)OCCO3)c1 [Compound 55, (S)—N-((4-carbamimidoylthiophen-2-yl)methyl)-7-((9,9-difluoro-9H-fluorene-3-carbonyl)glycyl)-1,4-dioxa-7-azaspiro[4.4]nonane-8-carboxamide]	< 100 nM
C[C@@H](NC(=O)[C@@H]1C[C@]2(COCCN)C[C@@H]2N1C(=O)CNC(=O)c1ccc(Oc2ccc(F)cc2)cc1)c1cc(C(=N)N)cs1 [Compound 69, (1S,3S,5R)-5-((2-aminoethoxy)methyl)-N—((R)-1-(4-carbamimidoylthiophen-2-yl)ethyl)-2-((4-(4-fluorophenoxy)benzoyl)glycyl)-2-azabicyclo[3.1.0]hexane-3-carboxamide]	< 100 nM
C[C@@H](NC(=O)[C@@H]1C[C@@H](Oc2ccccc2)CN1C(=O)CNC(=O)c1ccc(Oc2ccc(F)cc2)cc1)c1cc(C(=N)N)cs1 [Compound 37, (2S,4R)—N—((R)-1-(4-carbamimidoylthiophen-2-yl)ethyl)-1-((4-(4-fluorophenoxy)benzoyl)glycyl)-4-phenoxypyrrolidine-2-carboxamide]	< 100 nM

Same assay, conditions: Human complement C1s enzyme 1.16 nM, substrate Z-L-Lys-SBzl 100 μM, assay of Example 3; read-out: IC50 (Stars)

SMILES	IC50
COC[C@@]1(F)C[C@@H](C(=O)N[C@H](C)c2cc(/C(N)=N\C(=O)OC)cs2)N(C(=O)CNC(=O)c2ccc3c(c2)-c2ccccc2C3(F)F)C1 [Compound 232, methyl ((E)-amino(5-((R)-1-((2S,4R)-1-((9,9-difluoro-9H-fluorene-3-carbonyl)glycyl)-4-fluoro-4-(methoxymethyl)pyrrolidine-2-carboxamido)ethyl)thiophen-3-yl)methylene)carbamate]	< 100 nM
C[C@@H](NC(=O)[C@@H]1C[C@@H](S(C)(=O)=O)CN1C(=O)CNC(=O)c1ccc2c(c1)C(C)(C)c1ccccc1-2)c1cc(C(=N)N)cs1 [Compound 369, (2S,4R)—N—((R)-1-(4-carbamimidoylthiophen-2-yl)ethyl)-1-((9,9-dimethyl-9H-fluorene-2-carbonyl)glycyl)-4-(methylsulfonyl)pyrrolidine-2-carboxamide]	< 100 nM
C[C@@H](NC(=O)[C@@H]1C[C@@H](OC(F)F)CN1C(=O)CNC(=O)c1cccc(-c2ccc(F)cc2)c1)c1cc(C(=N)N)cs1 [Compound 330, (2S,4R)—N—((R)-1-(4-carbamimidoylthiophen-2-yl)ethyl)-4-(difluoromethoxy)-1-((4′-fluoro-[1,1′-biphenyl]-3-carbonyl)glycyl)pyrrolidine-2-carboxamide]	< 100 nM
C[C@@H](NC(=O)[C@@H]1C[C@](F)(CF)CN1C(=O)CNC(=O)c1ccc2oc3ccccc3c2c1)c1cc(C(=N)N)cs1 [Compound 223, (2S,4R)—N—((R)-1-(4-carbamimidoylthiophen-2-yl)ethyl)-1-((dibenzo[b,d]furan-2-carbonyl)glycyl)-4-fluoro-4-(fluoromethyl)pyrrolidine-2-carboxamide]	< 100 nM
C[C@@H](NC(=O)[C@@H]1C[C@@H](OC(F)F)CN1C(=O)CNC(=O)c1ccc2cc3ccccc3cc2c1)c1cc(C(=N)N)cs1 [Compound 206, (2S,4R)-1-((anthracene-2-carbonyl)glycyl)-N—((R)-1-(4-carbamimidoylthiophen-2-yl)ethyl)-4-(difluoromethoxy)pyrrolidine-2-carboxamide]	< 100 nM
C[C@@H](NC(=O)[C@@H]1C[C@]2(CN3CCOCC3)C[C@@H]2N1C(=O)CNC(=O)c1ccc2c(c1)-c1ccccc1C2(F)F)c1cc(C(=N)N)cs1 [Compound 267, (1S,3S,5S)—N—((R)-1-(4-carbamimidoylthiophen-2-yl)ethyl)-2-((9,9-difluoro-9H-fluorene-3-carbonyl)glycyl)-5-(morpholinomethyl)-2-azabicyclo [3.1.0]hexane-3-carboxamide]	< 100 nM
C=C1C[C@@H](C(=O)N[C@H](C)c2cc(C(=N)N)cs2)N(C(=O)CNC(=O)c2ccc3c(c2)-c2ccccc2C3(F)F)C1 [Compound 203, (S)—N—((R)-1-(4-carbamimidoylthiophen-2-yl)ethyl)-1-((9,9-difluoro-9H-fluorene-3-carbonyl)glycyl)-4-methylenepyrrolidine-2-carboxamide]	< 100 nM
COC[C@@]1(F)C[C@@H](C(=O)N[C@H](CO)c2cc(C(=N)N)cs2)N(C(=O)CNC(=O)c2ccc3c(c2)C(F)(F)c2ccccc2-3)C1 [Compound 397, (2S,4R)—N—((R)-1-(4-carbamimidoylthiophen-2-yl)-2-hydroxyethyl)-1-((9,9-difluoro-9H-fluorene-2-carbonyl)glycyl)-4-fluoro-4-(methoxymethyl)pyrrolidine-2-carboxamide]	< 100 nM
Cc1ccc(-c2cccc(C(=O)NCC(=O)N3C[C@H](S(C)(=O)=O)C[C@H]3C(=O)N[C@H](C)c3cc(C(=N)N)cs3)c2)cc1 [Compound 335, (2S,4R)—N—((R)-1-(4-carbamimidoylthiophen-2-yl)ethyl)-1-((4′-methyl-[1,1′-biphenyl]-3-carbonyl)glycyl)-4-(methylsulfonyl)pyrrolidine-2-carboxamide]	< 100 nM
C[C@@H](NC(=O)[C@@H]1C[C@@H](S(C)(=O)=O)CN1C(=O)CNC(=O)c1ccc2c(c1)sc1ccccc12)c1cc(C(=N)N)cs1 [Compound 378, (2S,4R)—N—((R)-1-(4-carbamimidoylthiophen-2-yl)ethyl)-1-((dibenzo[b,d]thiophene-3-carbonyl)glycyl)-4-(methylsulfonyl)pyrrolidine-2-carboxamide]	< 100 nM
COC[C@@]1(F)C[C@@H](C(=O)N[C@H](C)c2cc(C(=N)N)cs2)N(C(=O)CNC(=O)c2ccc3[nH]c4ccccc4c3c2)C1 [Compound 389, N-(2-((2S,4R)-2-(((R)-1-(4-carbamimidoylthiophen-2-yl)ethyl)carbamoyl)-4-fluoro-4-(methoxymethyl)pyrrolidin-1-yl)-2-oxoethyl)-9H-carbazole-3-carboxamide]	< 100 nM
C[C@@H](NC(=O)[C@@H]1C[C@](F)(CF)CN1C(=O)CNC(=O)c1ccc2c(c1)Oc1ccccc1S2)c1cc(C(=N)N)cs1 [Compound 327, (2S,4R)—N—((R)-1-(4-carbamimidoylthiophen-2-yl)ethyl)-4-fluoro-4-(fluoromethyl)-1-((phenoxathiine-3-carbonyl)glycyl)pyrrolidine-2-carboxamide]	< 100 nM

Same assay, conditions: Human complement C1s enzyme 1.16 nM, substrate Z-L-Lys-SBzl; assay of Example 3; read-out: IC50 (Stars)

SMILES	IC50
C[C@@H](NC(=O)[C@@H]1C[C@]2(COCCCCN)C[C@@H]2N1C(=O)CNC(=O)c1ccc2c(c1)-c1ccccc1C2(F)F)c1cc(C(=N)N)cs1 [Compound 414, (1S,3S,5R)-5-((4-aminobutoxy)methyl)-N—((R)-1-(4-carbamimidoylthiophen-2-yl)ethyl)-2-((9,9-difluoro-9H-fluorene-3-carbonyl)glycyl)-2-azabicyclo[3.1.0]hexane-3-carboxamide]	< 100 nM
